Data from PMC3704662, “Synthesis, docking and acetylcholinesterase inhibitory assessment of 2-(2-(4-Benzylpiperazin-1-yl)ethyl)isoindoline-1,3-dione derivatives with potential anti-Alzheimer effects” (DARU Journal of Pharmaceutical Sciences, 2013).

target: T1, acetylcholinesterase from electric eel (AChE, E.C. 3.1.1.7, Type V-S) (Electrophorus electricus, UniProt O42275); assay: biochemical; details: Ellman test; IC50 ± SEM; 15 min preincubation at 25°C; pH 8.0; acetylthiocholine iodide substrate; triplicate; read-out: IC50 of in vitro acetylcholinesterase assay
T1 construct: purchased Sigma-Aldrich (Steinheim, Germany) Type V-S (catalogue number not given)
T1 sequence (O42275 24-633): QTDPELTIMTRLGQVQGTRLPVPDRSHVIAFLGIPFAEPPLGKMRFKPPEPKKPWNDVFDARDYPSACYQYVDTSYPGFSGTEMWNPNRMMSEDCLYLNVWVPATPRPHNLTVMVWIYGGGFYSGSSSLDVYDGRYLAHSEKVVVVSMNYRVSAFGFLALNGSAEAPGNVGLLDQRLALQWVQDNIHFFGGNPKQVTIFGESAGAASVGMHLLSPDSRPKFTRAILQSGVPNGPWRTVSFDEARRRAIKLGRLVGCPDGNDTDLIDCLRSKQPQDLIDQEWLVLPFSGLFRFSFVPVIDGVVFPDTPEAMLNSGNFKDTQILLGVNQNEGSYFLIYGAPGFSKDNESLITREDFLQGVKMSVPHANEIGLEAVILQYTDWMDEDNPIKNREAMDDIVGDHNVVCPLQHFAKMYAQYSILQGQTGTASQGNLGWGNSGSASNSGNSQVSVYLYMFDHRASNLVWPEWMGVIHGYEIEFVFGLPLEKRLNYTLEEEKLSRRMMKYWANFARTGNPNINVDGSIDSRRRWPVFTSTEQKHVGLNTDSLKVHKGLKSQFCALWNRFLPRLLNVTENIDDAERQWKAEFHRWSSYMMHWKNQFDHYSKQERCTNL
Description: Lyophilized powder of acetylcholinesterase from electric eel source (AChE, E.C. 3.1.1.7, Type V-S, 1000 unit) was purchased from Sigma-Aldrich (Steinheim, Germany). 5,5’-Dithiobis-(2-nitrobenzoic acid), potassium dihydrogen phosphate, dipotassium hydrogen phosphate, potassium hydroxide, sodium hydrogen carbonate, and acetylthiocholine iodide were purchased from Fluka (Buchs, Switzerland). […] The Ellman test was carried out for assessment of the anticholinesterase activity of intended compounds in vitro. Prior to use, all solutions were adjusted to 25°C. […] The assay solution consisted of a 0.1 M potassium phosphate buffer pH 8.0, with the addition of 0.01 M 5,50-dithio-bis(2-nitrobenzoic acid), 2.5 unit/mL of enzyme solution (AChE, E.C. 3.1.1.7, Type V-S, lyophilized powder, from electric eel) (Sigma Chemical). […] After rapid and immediate mixing the change of absorption was measured at 412 nm. In order to justify non enzymatic reaction assays were carried out with a blank containing all components except AChE.
The blank reading contained 3 ml buffer, 200 μl water, 100 μl DTNB and 20 μl substrate. The reaction rates were calculated, and the percent inhibition of test compounds was determined. Each concentration was analyzed in triplicate, and IC50 values were determined graphically from inhibition curves (log inhibitor concentration vs percent of inhibition).

Structure (SMILES) | IC50 [µM]
O=C1c2ccccc2C(=O)N1CCN1CCN(Cc2ccc(Cl)cc2)CC1 [Compound 4c, 2-(2-(4-(4-Chlorobenzyl)piperazin-1-yl)ethyl)isoindoline-1,3-dione] | 26 ± 5
O=C1c2ccccc2C(=O)N1CCN1CCN(Cc2ccccc2)CC1 [Compound 4l, 2-(2-(4-Benzylpiperazin-1-yl)ethyl)isoindoline-1,3-dione] | 9 ± 2
O=C1c2ccccc2C(=O)N1CCN1CCN(Cc2ccccc2[N+](=O)[O-])CC1 [Compound 4i, 2-(2-(4-(2-Nitrobenzyl)piperazin-1-yl)ethyl)isoindoline-1,3-dione] | 36 ± 5
O=C1c2ccccc2C(=O)N1CCN1CCN(Cc2ccc(F)cc2)CC1 [Compound 4f, 2-(2-(4-(4-Fluorobenzyl)piperazin-1-yl)ethyl)isoindoline-1,3-dione] | 42 ± 8
O=C1c2ccccc2C(=O)N1CCN1CCN(Cc2cccc(F)c2)CC1 [Compound 4e, 2-(2-(4-(3-Fluorobenzyl)piperazin-1-yl)ethyl)isoindoline-1,3-dione] | 74 ± 11
O=C1c2ccccc2C(=O)N1CCN1CCN(Cc2ccc([N+](=O)[O-])cc2)CC1 [Compound 4k, 2-(2-(4-(4-Nitrobenzyl)piperazin-1-yl)ethyl)isoindoline-1,3-dione] | 40 ± 4
O=C1c2ccccc2C(=O)N1CCN1CCN(Cc2cccc(Cl)c2)CC1 [Compound 4b, 2-(2-(4-(3-Chlorobenzyl)piperazin-1-yl)ethyl)isoindoline-1,3-dione] | 85 ± 12
COc1cccc(CN2CCN(CCN3C(=O)c4ccccc4C3=O)CC2)c1 [Compound 4g, 2-(2-(4-(3-Methoxybenzyl)piperazin-1-yl)ethyl)isoindoline-1,3-dione] | 5.5 ± 0.7
O=C1c2ccccc2C(=O)N1CCN1CCN(Cc2cccc([N+](=O)[O-])c2)CC1 [Compound 4j, 2-(2-(4-(3-Nitrobenzyl)piperazin-1-yl)ethyl)isoindoline-1,3-dione] | 59 ± 6
O=C1c2ccccc2C(=O)N1CCN1CCN(Cc2ccccc2F)CC1 [Compound 4d, 2-(2-(4-(2-Fluorobenzyl)piperazin-1-yl)ethyl)isoindoline-1,3-dione] | 23 ± 7
O=C1c2ccccc2C(=O)N1CCN1CCN(Cc2ccccc2Cl)CC1 [Compound 4a, 2-(2-(4-(2-Chlorobenzyl)piperazin-1-yl)ethyl)isoindoline-1,3-dione] | 0.91 ± 0.045
COc1ccc(CN2CCN(CCN3C(=O)c4ccccc4C3=O)CC2)cc1 [Compound 4h, 2-(2-(4-(4-Methoxybenzyl)piperazin-1-yl)ethyl)isoindoline-1,3-dione] | 72 ± 9
